# Data taken from patent US20250221960A1, “COMPOSITIONS AND METHODS FOR THE TREATMENT OF DEPRESSION” (Janssen Pharmaceuticals, Inc., priority 2022, published 2025).
# Key:
# [1] = system: subjects with MDD; assay: MADRS total score, adjunctive aticaprant vs placebo (Example 1); details: for MADRS Total Score LSMean Difference (SE) Treatment - Placebo, MMRM / MADRS Total Score Effect Size vs placebo / MADRS Total Score Mean Change from Baseline (SD) / MADRS Total Score Change from Baseline LSMean (SE), MMRM: 10 mg
# [2] = system: subjects with MDD; assay: Treatment-emergent adverse events, full safety analysis set, Example 1
# [3] = Table 24, treatment period, Full Safety Analysis Set, 10 mg, N = 85
# [4] = Table 25, treatment period, Full Safety Analysis Set, 10 mg, N = 85
# [5] = Treatment period, Full Safety Analysis Set, 10 mg, N = 85
smiles,measurement,setting,value
"Cc1cc(C)cc(C2CCCN2Cc2ccc(Oc3ccc(C(N)=O)cc3F)cc2)c1 (centres unmarked) [aticaprant, 3-fluoro-4-4-2-(3,5-dimethylphenyl) pyrrolidin-1-yl-methylphenoxybenzamide]","MADRS Total Score LSMean Difference (SE) Treatment - Placebo, MMRM","[1]; eITT, Treatment Week 1",−1.2
same,MADRS Total Score Effect Size vs placebo,"[1]; eITT, Treatment Week 3",−0.22
same,"MADRS Total Score LSMean Difference (SE) Treatment - Placebo, MMRM","[1]; eITT, Treatment Week 3",−1.5
same,MADRS Total Score Effect Size vs placebo,"[1]; eITT, Treatment Week 4",−0.14
same,"MADRS Total Score LSMean Difference (SE) Treatment - Placebo, MMRM","[1]; eITT, Treatment Week 4",−1.1
same,MADRS Total Score Effect Size vs placebo,"[1]; eITT, Treatment Week 5",−0.14
same,"MADRS Total Score LSMean Difference (SE) Treatment - Placebo, MMRM","[1]; eITT, Treatment Week 5",−1.5
same,percentage of subjects with MADRS remission (MADRS total score≤10),"[1]; eITT, Treatment Week 6",16.9%
same,"MADRS Total Score LSMean Difference (SE) Treatment - Placebo, MMRM","[1]; eITT, Treatment Week 6",−2.1
same,"MADRS LSMeans difference estimate, supplementary MMRM analysis (data prior to 15 Mar. 2020, COVID-19)",[1]; fITT,−3.4
same,onset of significant treatment effect (MADRS LS mean change from baseline),"[1]; fITT, FIG. 7B",3 week
same,"MADRS Total Score LSMean Difference (SE) Treatment - Placebo, MMRM","[1]; fITT, Treatment Week 1",−1.6
same,MADRS Total Score Mean Change from Baseline (SD),"[1]; fITT, Treatment Week 1",−3.1
same,"MADRS Total Score Change from Baseline LSMean (SE), MMRM","[1]; fITT, Treatment Week 3",−5.2
same,MADRS Total Score Effect Size vs placebo,"[1]; fITT, Treatment Week 3",−0.26
same,"MADRS Total Score LSMean Difference (SE) Treatment - Placebo, MMRM","[1]; fITT, Treatment Week 3",−1.9
same,MADRS Total Score Mean Change from Baseline (SD),"[1]; fITT, Treatment Week 3",−5.1
same,MADRS Total Score Effect Size vs placebo,"[1]; fITT, Treatment Week 4",−0.32
same,"MADRS Total Score LSMean Difference (SE) Treatment - Placebo, MMRM","[1]; fITT, Treatment Week 4",−2.5
same,MADRS Total Score Mean Change from Baseline (SD),"[1]; fITT, Treatment Week 4",−7.2
same,MADRS Total Score Effect Size vs placebo,"[1]; fITT, Treatment Week 5",−0.26
same,"MADRS Total Score LSMean Difference (SE) Treatment - Placebo, MMRM","[1]; fITT, Treatment Week 5",−2.4
same,MADRS Total Score Mean Change from Baseline (SD),"[1]; fITT, Treatment Week 5",−8.3
same,percentage of subjects with MADRS remission (MADRS total score≤10),"[1]; fITT, Treatment Week 6",31.2%
same,"MADRS Total Score Change from Baseline LSMean (SE), MMRM","[1]; fITT, Treatment Week 6",−9.6
same,"MADRS Total Score LSMean Difference (SE) Treatment - Placebo, MMRM","[1]; fITT, Treatment Week 6",−3.1
same,MADRS total score difference between aticaprant and placebo,"[1]; fITT, low anhedonia level (n=94), Treatment Week 6",−2.3
same,LSMD (MADRS) in high anhedonia group relative to low anhedonia group,[1]; week 6,more than double
same,TEAE in >=5% of subjects: Diarrhea,[2]; [3],7 (8) n (%)
same,TEAE in >=5% of subjects: Gastrointestinal Disorders,[2]; [3],12 (14) n (%)
same,TEAE in >=5% of subjects: Headache,[2]; [3],10 (12) n (%)
same,TEAE in >=5% of subjects: Infections And Infestations,[2]; [3],13 (15) n (%)
same,TEAE in >=5% of subjects: Nasopharyngitis,[2]; [3],5 (6) n (%)
same,TEAE in >=5% of subjects: Nervous System Disorders,[2]; [3],13 (15) n (%)
same,TEAE in >=5% of subjects: Pruritus,[2]; [3],5 (6) n (%)
same,TEAE in >=5% of subjects: Skin And Subcutaneous Tissue Disorders,[2]; [3],6 (7) n (%)
same,TEAE in >=5% of subjects: Total no. Subjects with Adverse Events,[2]; [3],40 (47) n (%)
same,TEAE of Special Interest: Abdominal Pain,[2]; [4],1 (1.2) n (%)
same,TEAE of Special Interest: Abdominal Pain Upper,[2]; [4],0 n (%)
same,TEAE of Special Interest: Diarrhea,[2]; [4],7 (8.2) n (%)
same,TEAE of Special Interest: Dyspepsia,[2]; [4],1 (1.2) n (%)
same,TEAE of Special Interest: Gastrointestinal Disorders,[2]; [4],9 (10.6) n (%)
same,TEAE of Special Interest: Pruritus,[2]; [4],5 (5.9) n (%)
same,TEAE of Special Interest: Skin And Subcutaneous Tissue Disorders,[2]; [4],5 (5.9) n (%)
same,TEAE of Special Interest: Total no. Subjects with Adverse Events of Special Interest,[2]; [4],13 (15.3) n (%)
same,Subjects with 1 or more TEAE,[2]; [5],40 (47.1) n (%)
same,Subjects with 1 or more serious TEAE,[2]; [5],0 n (%)
same,Subjects with TEAE leading to death,[2]; [5],0 n (%)
same,Subjects with TEAE leading to discontinuation of agent,[2]; [5],1 (1.2) n (%)
same,Total subjects affected by non-serious adverse events,[2]; [5],23 (27.1%) n (%)
same,Subjects with drug-related TEAE,"[2]; Treatment period, Full Safety Analysis Set, 10 mg, N = 85, relationships possible, probable, very likely",20 (23.5) n (%)
same,patients who experienced acute cholecystitis,[2]; treatment period,0 patients
same,"TEAE of special interest pruritus, subjects","[2]; treatment period, 5/85",5.9%
same,"TEAE diarrhea, subjects","[2]; treatment period, 7/85",8.2%
same,"TEAE headache, subjects","[2]; treatment period, 10/85",11.8%
same,subjects who discontinued due to treatment-emergent adverse events,"[2]; treatment period, due to diarrhea, nausea, vomiting and headache",1 subject
